Results: ChEMBL document CHEMBL4616647, “PTP1B-Inhibiting Branched-Chain Fatty Acid Dimers from Eremophila oppositifolia subsp. angustifolia Identified by High-Resolution PTP1B Inhibition Profiling and HPLC-PDA-HRMS-SPE-NMR Analysis” (J Nat Prod, 2020)
Calls of active or inactive are those of the source. The rule behind the calls is not given here.

Columns and labels:
[1] = molecular target: T1, Tyrosine-protein phosphatase non-receptor type 1 (Homo sapiens, UniProt P18031); assay: Inhibition of human recombinant PTP1B (1 to 322 residues) expressed in Escherichia coli using pNPP as substrate preincubated for 10 mins followed by substrate addition and measured after every 30 secs for 10 mins by photometric method
T1 sequence (P18031 whole entry): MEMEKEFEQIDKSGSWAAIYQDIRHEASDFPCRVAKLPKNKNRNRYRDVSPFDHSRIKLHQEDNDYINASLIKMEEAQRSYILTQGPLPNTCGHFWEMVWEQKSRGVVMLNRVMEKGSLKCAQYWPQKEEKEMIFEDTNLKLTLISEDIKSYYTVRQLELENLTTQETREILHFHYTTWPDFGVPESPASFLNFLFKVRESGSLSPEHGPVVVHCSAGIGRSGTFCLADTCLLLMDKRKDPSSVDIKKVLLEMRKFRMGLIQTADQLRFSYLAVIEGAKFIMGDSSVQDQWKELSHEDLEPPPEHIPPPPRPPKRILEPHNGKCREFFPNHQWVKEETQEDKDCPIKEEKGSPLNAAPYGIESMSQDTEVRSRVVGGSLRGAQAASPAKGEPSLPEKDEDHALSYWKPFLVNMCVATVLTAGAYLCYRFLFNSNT

[2] = molecular target: T1, Tyrosine-protein phosphatase non-receptor type 1; assay: Inhibition of PTP1B (unknown origin) using pNPP as substrate incubated for 30 mins by photometric method
[3] = molecular target: T2, Tyrosine-protein phosphatase non-receptor type 1 (Homo sapiens) (UniProt P18031); assay: Inhibition of human recombinant PTP1B (1 to 322 residues) expressed in Escherichia coli by HPLC-PDA-HRMS-SPE-NMR analysis
T2 sequence (whole entry): T1 sequence (P18031 whole entry)

IC50 [1] [µM] | IC50 [2] [µM] | inhibition [3] | SMILES
163 |  |  | CCCCCCC/C=C/C(=C/C=C/C(=O)O)CO
 | 1.6 |  | CCCCCCCCCCCCCCCCCCCC(=O)O [ARACHIDIC ACID]
 | 2.3 |  | CCCCCCCCCCCCCCCCCC(=O)O [STEARIC ACID]
 | 6.2 |  | CCCCCCCC/C=C\CCCCCCCC(=O)O [OLEIC ACID]
484 |  |  | CCCCCCC/C=C/C(=C/C=C/C(=O)O)COC(C)=O
7.3 |  |  | CCCCCCCCCCCCCCCC(=O)C1=C(O)[C@@H](CO)OC1=O
 | 6.4 |  | CCCCCC/C=C\CCCCCCCC(=O)O [PALMITOLEIC ACID]
 | 1.4 |  | CCCCCCCC/C=C\CCCCCCCCCC(=O)O
2.4 |  | Active | CCCCCCC[C@H]1[C@H](/C(=C/C=C/C(=O)O)CO)[C@@H](/C=C/C(=O)O)C(COC(C)=O)=C[C@H]1CCCCCCC
38 |  |  | CCCCCCC/C=C/C(=C\C=C\C(=O)O)COC(C)=O
12 |  | Active | CCCCCCC[C@H]1[C@H](/C(=C/C=C/C(=O)O)COC(C)=O)[C@@H](/C=C/C(=O)O)C(COC(C)=O)=C[C@H]1CCCCCCC
12 |  | Active | CCCCCCC[C@@H]1[C@@H](/C(=C/C=C/C(=O)O)COC(C)=O)[C@@H](/C=C/C(=O)O)C(COC(C)=O)=C[C@H]1CCCCCCC
24 |  | Active | CCCCCCC[C@@H]1[C@@H](/C(=C/C=C/C(=O)O)COC(C)=O)[C@@H](/C=C/C(=O)O)C(CO)=C[C@H]1CCCCCCC
73 |  |  | CCCCCCC/C=C/C(C)=C/C=C/C(=O)O
66 |  | Active | CCCCCCC/C=C/C(=C/[C@H]1[C@H](C(=O)O)[C@H](CCCCCCC)C=C(COC(C)=O)[C@@H]1/C=C/C(=O)O)COC(=O)O
 | 8.8 |  | CCCCCCCCCCCCCCCC(=O)O [PALMITIC ACID]
144 |  |  | C=C(/C=C/CCCCCCC)CCCC(=O)O
30 |  | Active | CCCCCCC[C@@H]1[C@@H](/C(=C/C=C/C(=O)O)CO)[C@@H](/C=C/C(=O)O)C(COC(C)=O)=C[C@H]1CCCCCCC
